Like-named read-outs stand apart in the source and are kept apart here.
Key:
[1] = biological target: Adrenergic α2A (Homo sapiens, UniProt P08913)
Procedure: (§1) NMDA, 5-HT6 and tachykinin NK1 receptors along with the dopamine transporter (DAT), norepinephrine transporter (NET) and serotonin transporter (SERT). The specific ligand binding to the receptors was defined as the difference between the total binding and the nonspecific binding determined in the presence of an excess of unlabeled ligand. IC50 values were determined by a non-linear, least squares regression analysis using MathIQ™ (ID Business Solutions Ltd., UK). […] Hill coefficient (nH), defining the slope of the competitive binding curve, was calculated using MathIQ™.

[2] = biological target: Serotonin transporter (SERT) (Homo sapiens, UniProt P31645)
Procedure: as §1

[3] = biological target: Dopamine D2 (Homo sapiens, UniProt P14416)
Procedure: as §1

[4] = biological target: Dopamine transporter (DAT) (Homo sapiens, UniProt Q01959)
Procedure: as §1

[5] = biological target: Muscarinic M2 (Homo sapiens, UniProt P08172)
Procedure: as §1

[6] = biological target: Histamine H3 (Homo sapiens, UniProt Q9Y5N1)
Procedure: as §1

[7] = biological target: Sigma-2 (σ2R) (Homo sapiens, UniProt Q5BJF2)
Procedure: as §1

[8] = biological target: Dopamine D3 (Homo sapiens, UniProt P35462)
Procedure: as §1

[9] = biological target: Serotonin 5-HT1A (Homo sapiens, UniProt P08908)
Procedure: as §1

[10] = biological target: Serotonin 5-HT2A (Homo sapiens, UniProt P28223)
Procedure: as §1

[11] = biological target: Tachykinin NK1 (Homo sapiens, UniProt P25103)
Procedure: as §1

[12] = test system: NMDAR
Procedure: as §1

[13] = biological target: Norepinephrine transporter (NET) (Homo sapiens, UniProt P23975)
Procedure: as §1

[14] = biological target: Adrenergic α2C (Homo sapiens, UniProt P18825)
Procedure: as §1

[15] = biological target: Serotonin 5-HT7 (Homo sapiens, UniProt P34969)
Procedure: as §1

[16] = biological target: Sigma-1 (σ1R) (Homo sapiens, UniProt Q99720)
Procedure: as §1

[17] = test system: D2R; conditions: for % D2R occupancy: NHP, based on 11C-raclopride PET
Description: (§2) NHP σ1R occupancy data are extrapolated from in vitro binding investigations with 3H-fluspidine, known and specific σ1R tracer, against human σ1R.

[18] = biological target: sigma-1 receptor (S1R) (Homo sapiens, UniProt Q99720)
Description: (§3) The study consisted of a screening period of up to 8 weeks prior to first dosing of tracer, including a Ti three-dimensional magnetization-prepared rapid acquisition gradient echo (MPRAGE 3D) magnetic resonance imaging (MRI) scan (visit 1), a study period of up to 4 weeks (including visits 2 and 3), and a follow-up visit (visit 4). […] Each dose cohort comprised up to 4 subjects. Although every subject of each dose cohort was expected to receive the same dose, it was also possible to change the dose level within a cohort due to the adaptive design of the study.

[19] = biological target: dopamine-2 receptor (D2R) (Homo sapiens, UniProt P14416); conditions: 90 mg
Description: as §3

[20] = test system: human subject afflicted with a DIMD; conditions: 45, 90, 135 or 180 mg/day oral, add-on
[21] = test system: human subject afflicted with LID; conditions: 45, 90, 135 or 180 mg/day oral, add-on to amantadine
[22] = test system: human subject afflicted with LID; conditions: greater than 100 mg/day oral, add-on to levodopa
Description: The therapy provides efficacy in treating the patient without undue adverse side effects or affecting the safety of the treatment: […]

[23] = biological target: D2R (Homo sapiens, UniProt P14416); conditions: human 67.5 mg bid; based on human PET data and PK profile
[24] = biological target: T1, D2R (Rattus norvegicus, UniProt P61169); conditions: cited from earlier work
[25] = biological target: T2, σ1R (Rattus norvegicus, UniProt Q9R0C9); test: in vivo; conditions: po, read-out: % σ1R occupancy
Description: as §2

[26] = biological target: T1, D2R; test: in vivo; conditions: po, read-out: % D2R occupancy
Description: as §2

[27] = biological target: σ1R (Homo sapiens, UniProt Q99720); test: in vivo
Description: as §2

[28] = biological target: T2, σ1R; conditions: 3 mg/kg PO; cited from earlier work

T1 sequence (P61169 whole entry): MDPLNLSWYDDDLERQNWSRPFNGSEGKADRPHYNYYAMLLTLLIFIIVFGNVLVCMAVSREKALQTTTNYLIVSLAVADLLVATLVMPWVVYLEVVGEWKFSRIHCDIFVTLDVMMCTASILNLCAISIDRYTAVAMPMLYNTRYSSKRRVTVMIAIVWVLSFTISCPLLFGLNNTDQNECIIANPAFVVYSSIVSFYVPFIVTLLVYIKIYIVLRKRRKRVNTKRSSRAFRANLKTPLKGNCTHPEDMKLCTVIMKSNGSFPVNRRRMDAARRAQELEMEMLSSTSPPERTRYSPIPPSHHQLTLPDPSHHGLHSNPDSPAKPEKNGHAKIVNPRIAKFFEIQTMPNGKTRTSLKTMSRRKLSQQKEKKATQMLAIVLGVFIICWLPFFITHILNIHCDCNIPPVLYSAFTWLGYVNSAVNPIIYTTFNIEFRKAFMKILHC
Sequence of sigma-1 receptor (S1R) (Q99720 whole entry): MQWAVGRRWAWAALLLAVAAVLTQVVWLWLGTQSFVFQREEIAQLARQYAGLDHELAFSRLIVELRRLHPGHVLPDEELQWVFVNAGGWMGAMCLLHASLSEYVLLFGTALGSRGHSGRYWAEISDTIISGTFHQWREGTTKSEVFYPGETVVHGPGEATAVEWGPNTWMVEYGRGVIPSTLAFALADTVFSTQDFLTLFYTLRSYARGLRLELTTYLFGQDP
Sequence of σ1R (Homo sapiens, UniProt Q99720) (Q99720 whole entry): as above
T2 sequence (Q9R0C9 whole entry): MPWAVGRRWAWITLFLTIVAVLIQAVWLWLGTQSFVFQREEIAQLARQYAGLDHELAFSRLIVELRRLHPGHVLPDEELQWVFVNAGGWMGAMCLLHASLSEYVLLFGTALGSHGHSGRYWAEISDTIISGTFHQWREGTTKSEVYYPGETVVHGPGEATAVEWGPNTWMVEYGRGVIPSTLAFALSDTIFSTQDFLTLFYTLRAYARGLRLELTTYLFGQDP
Sequence of Sigma-1 (σ1R) (Q99720 whole entry, species assumed): as the sequence (Q99720 whole entry) above
Sequence of Dopamine D2 (P14416 whole entry): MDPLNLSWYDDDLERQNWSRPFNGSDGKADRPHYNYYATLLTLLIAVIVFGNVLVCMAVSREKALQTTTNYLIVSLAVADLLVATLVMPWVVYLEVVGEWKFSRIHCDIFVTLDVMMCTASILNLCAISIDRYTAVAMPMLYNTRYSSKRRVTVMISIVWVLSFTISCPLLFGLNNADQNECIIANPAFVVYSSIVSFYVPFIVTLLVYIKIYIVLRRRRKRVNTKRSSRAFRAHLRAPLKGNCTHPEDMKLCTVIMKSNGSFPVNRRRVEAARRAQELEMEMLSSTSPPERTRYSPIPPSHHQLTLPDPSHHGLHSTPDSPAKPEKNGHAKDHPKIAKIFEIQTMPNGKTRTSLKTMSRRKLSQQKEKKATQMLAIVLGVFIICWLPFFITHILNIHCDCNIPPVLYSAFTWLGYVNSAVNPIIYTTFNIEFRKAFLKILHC
Sequence of Tachykinin NK1 (P25103 whole entry): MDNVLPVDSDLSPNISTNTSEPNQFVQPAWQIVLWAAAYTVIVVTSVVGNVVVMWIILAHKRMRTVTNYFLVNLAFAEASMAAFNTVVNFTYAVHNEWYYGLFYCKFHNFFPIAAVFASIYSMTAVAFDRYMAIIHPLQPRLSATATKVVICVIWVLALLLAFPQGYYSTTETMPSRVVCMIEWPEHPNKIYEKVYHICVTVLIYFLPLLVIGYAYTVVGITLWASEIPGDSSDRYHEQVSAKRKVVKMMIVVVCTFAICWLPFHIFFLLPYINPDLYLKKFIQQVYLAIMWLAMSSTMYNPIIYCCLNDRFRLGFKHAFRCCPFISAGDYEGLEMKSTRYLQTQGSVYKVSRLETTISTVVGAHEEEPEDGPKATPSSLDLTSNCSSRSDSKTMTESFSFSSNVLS
Sequence of Dopamine D3 (P35462 whole entry): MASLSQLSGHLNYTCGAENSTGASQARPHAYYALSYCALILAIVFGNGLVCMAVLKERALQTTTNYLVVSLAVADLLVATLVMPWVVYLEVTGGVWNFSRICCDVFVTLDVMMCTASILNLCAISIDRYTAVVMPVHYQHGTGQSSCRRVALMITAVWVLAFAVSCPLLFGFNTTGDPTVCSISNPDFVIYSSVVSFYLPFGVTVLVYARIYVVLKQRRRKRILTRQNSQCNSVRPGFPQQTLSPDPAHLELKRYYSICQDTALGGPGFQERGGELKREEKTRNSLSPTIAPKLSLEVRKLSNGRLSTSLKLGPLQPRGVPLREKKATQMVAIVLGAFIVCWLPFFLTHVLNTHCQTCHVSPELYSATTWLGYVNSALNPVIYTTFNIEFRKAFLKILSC
Sequence of Serotonin 5-HT1A (P08908 whole entry): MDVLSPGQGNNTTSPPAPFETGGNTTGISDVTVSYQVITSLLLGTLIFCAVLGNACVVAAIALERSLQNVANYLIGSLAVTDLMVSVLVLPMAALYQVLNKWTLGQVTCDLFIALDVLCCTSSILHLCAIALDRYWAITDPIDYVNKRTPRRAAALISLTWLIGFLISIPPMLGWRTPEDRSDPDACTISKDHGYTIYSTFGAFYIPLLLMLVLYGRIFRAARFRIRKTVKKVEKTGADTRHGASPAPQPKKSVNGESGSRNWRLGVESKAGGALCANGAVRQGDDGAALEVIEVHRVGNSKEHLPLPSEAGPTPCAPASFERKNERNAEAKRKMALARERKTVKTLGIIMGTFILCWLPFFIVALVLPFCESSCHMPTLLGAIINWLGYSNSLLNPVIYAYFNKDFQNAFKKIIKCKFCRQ
Sequence of Histamine H3 (Q9Y5N1 whole entry): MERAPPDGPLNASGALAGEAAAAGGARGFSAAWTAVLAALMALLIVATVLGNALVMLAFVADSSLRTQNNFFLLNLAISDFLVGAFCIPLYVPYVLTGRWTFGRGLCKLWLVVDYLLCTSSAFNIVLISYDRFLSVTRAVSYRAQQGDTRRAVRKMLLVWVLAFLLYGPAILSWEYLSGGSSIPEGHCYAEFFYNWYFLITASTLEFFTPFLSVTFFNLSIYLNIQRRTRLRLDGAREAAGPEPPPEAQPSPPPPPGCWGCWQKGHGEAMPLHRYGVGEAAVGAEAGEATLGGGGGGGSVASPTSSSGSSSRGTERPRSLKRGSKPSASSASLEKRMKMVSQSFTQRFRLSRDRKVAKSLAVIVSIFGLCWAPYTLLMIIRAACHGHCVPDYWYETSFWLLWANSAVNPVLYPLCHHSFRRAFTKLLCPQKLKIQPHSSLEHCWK
Sequence of Serotonin transporter (SERT) (P31645 whole entry, species assumed): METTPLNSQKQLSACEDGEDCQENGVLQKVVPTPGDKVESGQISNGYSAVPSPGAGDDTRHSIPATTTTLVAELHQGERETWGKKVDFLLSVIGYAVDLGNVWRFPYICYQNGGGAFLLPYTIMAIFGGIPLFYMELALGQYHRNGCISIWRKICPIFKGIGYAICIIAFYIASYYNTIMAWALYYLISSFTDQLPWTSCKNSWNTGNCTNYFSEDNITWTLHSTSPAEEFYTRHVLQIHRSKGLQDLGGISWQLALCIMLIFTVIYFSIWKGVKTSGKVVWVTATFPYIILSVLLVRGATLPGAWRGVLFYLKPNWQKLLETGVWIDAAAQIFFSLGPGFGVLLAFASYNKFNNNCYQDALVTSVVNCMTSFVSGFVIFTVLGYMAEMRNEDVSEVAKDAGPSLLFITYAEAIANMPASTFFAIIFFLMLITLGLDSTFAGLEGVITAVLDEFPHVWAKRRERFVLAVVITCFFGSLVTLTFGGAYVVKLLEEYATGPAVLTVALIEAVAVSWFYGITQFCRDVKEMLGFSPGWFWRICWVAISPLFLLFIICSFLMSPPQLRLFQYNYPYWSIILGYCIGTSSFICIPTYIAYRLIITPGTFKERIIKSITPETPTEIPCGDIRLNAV
Sequence of Sigma-2 (σ2R) (Q5BJF2 whole entry): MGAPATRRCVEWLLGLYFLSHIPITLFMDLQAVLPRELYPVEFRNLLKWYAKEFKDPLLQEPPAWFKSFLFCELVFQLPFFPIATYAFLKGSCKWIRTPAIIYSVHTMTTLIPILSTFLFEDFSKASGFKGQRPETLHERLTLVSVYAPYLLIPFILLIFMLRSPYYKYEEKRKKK
Sequence of Norepinephrine transporter (NET) (P23975 whole entry, species assumed): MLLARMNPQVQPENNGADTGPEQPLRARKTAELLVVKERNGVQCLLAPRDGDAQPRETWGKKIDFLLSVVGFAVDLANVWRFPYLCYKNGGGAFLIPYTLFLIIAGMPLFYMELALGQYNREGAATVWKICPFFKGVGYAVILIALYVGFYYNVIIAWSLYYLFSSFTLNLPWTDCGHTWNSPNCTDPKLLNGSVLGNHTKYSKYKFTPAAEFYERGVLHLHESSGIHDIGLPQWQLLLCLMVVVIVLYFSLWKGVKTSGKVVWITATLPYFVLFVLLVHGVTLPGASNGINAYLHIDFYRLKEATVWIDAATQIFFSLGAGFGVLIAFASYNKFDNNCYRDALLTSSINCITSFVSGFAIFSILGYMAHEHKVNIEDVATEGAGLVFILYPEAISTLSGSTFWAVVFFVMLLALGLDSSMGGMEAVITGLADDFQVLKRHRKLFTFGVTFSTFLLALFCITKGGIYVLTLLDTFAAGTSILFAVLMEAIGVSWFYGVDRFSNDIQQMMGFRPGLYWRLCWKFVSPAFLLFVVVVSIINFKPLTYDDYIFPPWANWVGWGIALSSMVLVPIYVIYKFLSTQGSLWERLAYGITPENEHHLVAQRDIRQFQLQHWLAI
Sequence of dopamine-2 receptor (D2R) (P14416 whole entry): as the sequence (P14416 whole entry) above
Sequence of D2R (Homo sapiens, UniProt P14416) (P14416 whole entry): as above

## CCCN1CCC(c2cccc(S(C)(=O)=O)c2)CC1 [pridopidine, 4-(3-(methylsulfonyl)phenyl)-1-propylpiperidine]
[1]
  nH (Hill coefficient): 0.98
[2]
  binding: no observed binding
[3]
  binding against the dopamine D2 receptors: negligible or no binding
  nH (Hill coefficient): 0.94
[4]
  binding: no observed binding
[5]
  nH (Hill coefficient): 0.62
[6]
  nH (Hill coefficient): 0.85
[7]
  nH (Hill coefficient): 0.80
[8]
  nH (Hill coefficient): 0.90
[9]
  nH (Hill coefficient): 0.72
[10]
  nH (Hill coefficient): 0.81
[11]
  binding: no observed binding
[12]
  binding: no observed binding
[13]
  binding: no observed binding
[14]
  nH (Hill coefficient): 0.76
[15]
  nH (Hill coefficient): 1.02
[16]
  nH (Hill coefficient): 0.87
[16]; S1R vs D2R
  affinity for S1R compared to Dopamine D2R: approximately 100 fold
[17]; 7 mg/kg PO
  % D2R occupancy: <15%
[17]; 15 mg/kg PO
  % D2R occupancy: 15%
[17]; 20 mg/kg PO
  % D2R occupancy: 25%
[17]; 30 mg/kg PO
  % D2R occupancy: 40%
[17]; high, effective dose (30 mg/kg, or 20 mg/kg in study 1)
  occupancy of low affinity dopamine receptors (expected): about 40%
[17]; low, ineffective doses (7 and 15 mg/kg (study 1), 20 mg/kg in study 2)
  occupancy of low affinity dopamine receptors (expected): about 10%
[17]; macaques, effective doses (20 to 30 mg/kg)
  D2R-occupancy: 25-40%
[18]; 90 mg
  difference in drug-induced S1R occupancy between HV and HD patients: no differences
[18]; healthy volunteers, single oral dose 45 mg, 2 h after dosing
  S1R occupancy: ~100%
[18]; healthy volunteers, single oral dose 90 mg, 2 h after dosing
  S1R occupancy: ~100%
[18]; single oral dose 1 mg
  S1R occupancy: approximately 40%
[19]
  D2R blockage: 3%
[20]
  symptoms of DIMD: effective (provides at least an additive effect or more than an additive effect)
[21]
  symptoms of dyskinesia: effective (provides at least an additive effect or more than an additive effect)
[22]
  anti-parkinsonian benefit of L-DOPA: does not affect the anti-parkinsonian benefit of L-DOPA
  bad quality on-time evoked by levodopa: improves the bad quality on-time
  symptoms of dyskinesia: effective in improving symptoms of dyskinesia
[23]
  occupancy of the dopamine receptors (DARs) (estimated): minimal occupancy
[24]; 3 mg/kg PO
  % D2R occupancy: 0%
[24]; 15 mg/kg PO
  % D2R occupancy: 0%
[25]
  receptor occupancy at 60 mg/kg: > 85%
[26]
  receptor occupancy at 60 mg/kg: 45%
[27]; NHP, 15 mg/kg PO, extrapolated from in vitro binding, 15 mg/kg
  % σ1R occupancy: >80%
[27]; po, read-out: % σ1R occupancy, NHP, 7 mg/kg PO, extrapolated from in vitro binding
  receptor occupancy at 7 mg/kg: 60 to 80%
[27]; po, read-out: % σ1R occupancy, NHP, 15 mg/kg PO, extrapolated from in vitro binding
  receptor occupancy at 15 mg/kg: > 85%
[27]; po, read-out: % σ1R occupancy, NHP, 20 mg/kg PO, extrapolated from in vitro binding
  receptor occupancy at 20 mg/kg: > 80%
[27]; po, read-out: % σ1R occupancy, NHP, 30 mg/kg PO, extrapolated from in vitro binding
  receptor occupancy at 30 mg/kg: > 80%
[27]; read-out: S1R occupancy (expected), high, effective dose (30 mg/kg, or 20 mg/kg in study 1)
  receptor occupancy at 30 mg/kg: > 80%
[27]; read-out: S1R occupancy (expected), low, ineffective doses (7 and 15 mg/kg (study 1), 20 mg/kg in study 2)
  receptor occupancy at 20 mg/kg: > 80%
[28]
  % σ1R occupancy: 60%
